Structures are written as SMILES. Where “and” joins values, the source holds several entries; their conditions need not be identical. Identical values can stand only once.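 Five concentrations, 48 hours, 96-well plates. The concentration for 50% growth inhibition is given as GI50. At the TGI there is no net growth.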 Some results are limits rather than exact numbers.

Some test systems named below: NCI-H522 lung; MDA-MB-435; NCI-H23 lung; 786-0 renal; UACC-257 melanoma; HT29 colon; DU-145 prostate; UO-31 renal; MOLT-4 leukemia; OVCAR-4 ovarian.
What all share (experiment): NCI anticancer screen, dose series, 48 h

As to `CN(C)c1ncnc2c1ccn2C1OC(CO)C(O)C1O` (configuration not stated), the GI50 in the test on NCI-H522 lung was more than 100 µM; with MDA-MB-435 it was 2.55 µM; in the test on NCI-H23 lung, 5.45 µM; with 786-0 renal it was 3.98 µM; with UACC-257 melanoma it was more than 100 µM; in the test with HT29 colon, 1.47 µM. Besides, the GI50 with DU-145 prostate is 0.386 µM; in the test with UO-31 renal, 1.37 µM; in the test on MOLT-4 leukemia, 0.278 µM; in the test on OVCAR-4 ovarian, 2.02 µM. For the same compound, the TGI in the test with NCI-H522 lung was more than 100 µM; with MDA-MB-435, more than 29.1 µM; in the test with NCI-H23 lung, more than 100 µM; in the test on 786-0 renal, 97.8 µM; with UACC-257 melanoma it was more than 100 µM; in the test on HT29 colon it was more than 100 µM. For the same compound, the TGI came to 2.94 µM in the test with DU-145 prostate, 13.7 µM in the test with UO-31 renal, 1.95 µM in the test with MOLT-4 leukemia and 38.4 µM with OVCAR-4 ovarian.
Turning to `CC1=NN(c2ccccc2)C(=O)C1N=Nc1ccc(S(N)(=O)=O)cc1` (configuration not stated), the TGI with NCI-H522 lung, in the test on MDA-MB-435, with NCI-H23 lung, in the test with 786-0 renal, in the test with UACC-257 melanoma and in the test with HT29 colon was more than 100 µM in each case. Further, the TGI in the test with DU-145 prostate, in the test with UO-31 renal, in the test with MOLT-4 leukemia and with OVCAR-4 ovarian was more than 100 µM in each case.
In the case of `Nc1cc(-c2ccccc2)n(C(=O)Nc2ccc(Oc3ccccc3)cc2)n1`, the GI50 in the test with NCI-H522 lung was 54.7 µM; in the test with MDA-MB-435, more than 100 µM; in the test with NCI-H23 lung, more than 100 µM; in the test on 786-0 renal it was 29.5 µM; in the test with UACC-257 melanoma it was 84.5 µM; with HT29 colon, 19.1 µM. Moreover, the GI50 in the test with DU-145 prostate was more than 100 µM; in the test on UO-31 renal it was 52.5 µM; with MOLT-4 leukemia it was 50.5 µM; in the test on OVCAR-4 ovarian it was 2.91 µM. The TGI with NCI-H522 lung, in the test with MDA-MB-435, in the test with NCI-H23 lung, with 786-0 renal, with UACC-257 melanoma and in the test on HT29 colon was more than 100 µM each time. The TGI was more than 100 µM in the test with DU-145 prostate, more than 100 µM in the test with UO-31 renal, more than 100 µM in the test with MOLT-4 leukemia and 27 µM with OVCAR-4 ovarian.
Turning to `COc1cc2nncc(SCc3ccc(Cl)c(Cl)c3)c2cc1OC`, the TGI in the test with NCI-H522 lung, with MDA-MB-435, in the test with NCI-H23 lung, in the test with 786-0 renal, in the test with UACC-257 melanoma and with HT29 colon was more than 100 µM in each case. Moreover, the TGI in the test on DU-145 prostate is more than 100 µM; in the test with UO-31 renal, more than 100 µM; with MOLT-4 leukemia, more than 100 µM; in the test on OVCAR-4 ovarian, more than 91.9 µM.
Consider `c1ccc2c(CN3CCC(C4CCN(Cc5cccc6ccccc56)CC4)CC3)cccc2c1`, for which the TGI in the test with NCI-H522 lung is 26.3 µM and 23.4 µM; in the test on MDA-MB-435, 11.4 µM; in the test on NCI-H23 lung, more than 100 µM; with 786-0 renal, 32.2 µM and 34.5 µM; in the test on UACC-257 melanoma, 4.25 µM and 11.9 µM; in the test on HT29 colon, 11.7 µM and 11.2 µM. In addition, the TGI in the test on DU-145 prostate was more than 100 µM; in the test on UO-31 renal, 16.2 µM and > 100 µM; with MOLT-4 leukemia, 26.6 µM and 99.1 µM; with OVCAR-4 ovarian, 38.2 µM and > 100 µM. The GI50 with NCI-H23 lung is 23.2 µM and > 100 µM; with UO-31 renal it was 3.84 µM and 29.4 µM; in the test with OVCAR-4 ovarian, 13.6 µM and 35.9 µM.
As to `O=C1COCCN1c1ccc(NCc2cn(C(=O)c3ccc(Cl)cc3)c3ccccc23)cc1`, the GI50 with NCI-H522 lung is 5.12 µM; in the test on MDA-MB-435, 16.4 µM; in the test on NCI-H23 lung, 3.79 µM; in the test with 786-0 renal it was 2.7 µM; in the test on UACC-257 melanoma, 0.276 µM; with HT29 colon, 3.79 µM. Also, the GI50 in the test with DU-145 prostate is 8.76 µM; in the test with UO-31 renal it was 2.09 µM; in the test with MOLT-4 leukemia, 5.66 µM; in the test on OVCAR-4 ovarian it was 0.494 µM. Also, the TGI in the test on NCI-H522 lung is 35.9 µM; in the test with MDA-MB-435, 50.1 µM; in the test with NCI-H23 lung, 52.1 µM; with 786-0 renal it was more than 100 µM; with UACC-257 melanoma, 1.7 µM; in the test with HT29 colon, more than 100 µM. For the same compound, the TGI was more than 100 µM in the test with DU-145 prostate, 16.5 µM in the test on UO-31 renal, 47.8 µM in the test with MOLT-4 leukemia and 18.8 µM with OVCAR-4 ovarian.
With `Cn1ncnc1C1c2n[nH]c(=O)c3cc(F)cc(c23)NC1c1ccc(F)cc1` (configuration not stated), the GI50 was more than 100 µM with NCI-H522 lung; more than 100 µM in the test with MDA-MB-435; more than 100 µM with 786-0 renal; more than 100 µM with UACC-257 melanoma; more than 100 µM in the test with HT29 colon; 4.14 µM in the test on DU-145 prostate. For the same compound, the GI50 was 11.9 µM in the test on UO-31 renal, 3.25 µM in the test on MOLT-4 leukemia and 12.7 µM in the test with OVCAR-4 ovarian. Moreover, the TGI in the test on NCI-H522 lung, in the test on MDA-MB-435, in the test with NCI-H23 lung, with 786-0 renal, in the test with UACC-257 melanoma and in the test with HT29 colon was more than 100 µM each time. Besides, the TGI in the test on DU-145 prostate, in the test on UO-31 renal, in the test with MOLT-4 leukemia and in the test with OVCAR-4 ovarian was more than 100 µM throughout.
Regarding `O=C1NC(c2ccccc2)N=C2Oc3ccccc3C=C12` (configuration not stated), the TGI with NCI-H522 lung is more than 100 µM; in the test with MDA-MB-435, 0.138 µM; in the test on NCI-H23 lung, more than 100 µM; in the test on 786-0 renal, more than 39 µM; in the test on UACC-257 melanoma, more than 100 µM; in the test on HT29 colon it was more than 23.6 µM. Moreover, the TGI in the test on DU-145 prostate, in the test with UO-31 renal, in the test on MOLT-4 leukemia and in the test on OVCAR-4 ovarian was more than 100 µM in each case.

Source of the values: PubChem BioAssay (NCI).
